Data set [1] concerns the target murine FAP (Mus musculus (Mouse), UniProt P97321). The data set can be described thus: Inhibition assay of FAP (fluorogenic substrate Z-Gly-Pro-AMC). The data set is classed as biochemical. The following applies: substrate Z-Gly-Pro-AMC 20 μM; 66 pM murine FAP; room temperature. The procedure: (§1) Inhibition assay of FAP. The compounds were precisely weighed (range between […]) on a micro-scale (HuberLab, Sartorius QUINTIX35-1S) and dissolved in DMSO to prepare stock solutions at 1 mM. Stock solutions were further diluted with FAP activation buffer (50 mM Tris, 100 mM NaCl, 1 mM EDTA, pH=7.4) to a final DMSO concentration of 10% v/v. 10 μL of each inhibitor were serially diluted in a 384 well plate (grenier-bio one, PS, F-bottom, Black, non-binding) with 10 μL of 10% DMSO FAP buffer (1:1 dilution). FAP (human and murine) was diluted to the desired concentration with FAP activation buffer and added to the serial dilution of inhibitor (10 μL for each well). Each protein-inhibitor solution was incubated for 30 minutes at room temperature. Each measurement was performed with an enzyme concentration (FAP) lower than the expected IC50. A 60 μM solution of substrate (Z-Gly-Pro-AMC) in FAP activation buffer (<1% DMSO) was added to the plate (10 μL for each well). The reaction was incubated from 1 minute to 48 hours (see FIG. 2) at room temperature (22° C.-25° C.). The emission was read at 465 nm (excitation wavelength 360 nm) for 40 μs by Tecan Spark (s.n. 1808004082). The following controls were added to each row: positive control (no inhibitor control, 10 μL of 10% DMSO FAP buffer+10 μL of FAP solution+10 μL of substrate solution), negative control (no protein control, 10 μL of 10% DMSO FAP buffer+10 μL of FAP activation buffer+10 μL of substrate solution).
(§2) Normalization of values: The “% of FAP activity” can be calculated with the following formula:
(§3) FIG. 3: Inhibition assay performed with compounds 1, 2, 3, 4, 5, 6, 8 against a) 66 pM human FAP and b) 66 pM murine FAP. The concentration of substrate (Z-Gly-Pro-AMC) was kept constant=20 μM. The assay was incubated for 48 hours at 22.6° C. Error bars display SEM.
(§4) FIG. 4: a) Inhibition assay performed with compounds 8, 9 and 10 against 66 pM human FAP. The assay was incubated for 17 hours at 25° C. b) Inhibition assay performed with compound 9 against 66 pM murine FAP. The assay was incubated for 17 hours at 25° C. In both assays the concentration of substrate (Z-Gly-Pro-AMC) was kept constant=20 μM. Error bars display SEM.

For data set [2], the target named is human FAP (Homo sapiens (Human), UniProt Q12884). The data set is described as above. Type of data set: biochemical. The procedure: as §1, §2
The concentration of substrate (Z-Gly-Pro-AMC) was kept constant=20 μM. Dashed lines corresponds to sets of data with unstable fitting. […] Error bars display SEM.
as §3, §4
FIG. 19. A: Chemical structures and corresponding IC50(hFAP) values of compounds according to the present invention. B: Chemical structures and corresponding IC50 values of compounds where the propargyl moiety at position AA^2 was replaced by different groups (Me, iPr, Bn) using both R and S stereoisomers. The sites of modification have been highlighted with arrows. Each measurement was performed with a FAP concentration lower than the expected IC50. Depending on FAP concentration, the fluorescence was measured between 10 minutes and 48 h (at room temperature) after the addition of the fluorogenic substrate (Z-Gly-Pro-AMC). IC50 values and standard errors were calculated using “[Inhibitor] vs. response—Variable slope (four parameters)” fitting (Graphpad Prism). […] By introducing the quinoline-based moiety, a single-digit nanomolar inhibitor was obtained. […] The replacement of propargylglycine with S-phenylalanine improved potency of the lead compound of additional ˜2-folds (compound 14).

Data set [3] can be described thus: Serum stability. Type of data set: in vitro ADME. The following applies: mouse, in vitro, time points 0 to 48 h. How it is done:
In two separate Eppendorf, 4 μL of compound 28 and 38 (1 mM solution in DMSO) and 36 μL of serum for each time point were mixed. After each specific time point, 40 μL of mixture were freezed in liquid nitrogen and then stored at −20° C. Once all the samples were collected, samples were defrosted at 24° C. and 300 μL of ACN were added. The samples were then centrifuged at 10′000 RPM for 5 minutes. 200 μL of the supernatant were transferred to a second Eppendorf tube and dried under vacuum for 2 h. The residue was carefully resuspended in 30 μL of mQ Water:acetonitrile=9:1 mixture (with 0.1% v/v of formic acid) and analysed by LC-MS. Each time point was performed in triplicate. The percentage of intact […] was determined extracting the area of the UV peak. The obtained values were normalized on the average area at time point corresponding to 0 hours.

The subject of data set [4] is SK-RC-52.hFAP cells. As to the kind of experiment: Confocal microscopy on living cells. The data set is classed as cell-based. The following applies: 150 nM; imaged 1 h after incubation. How it is done: SK—RC-52.hFAP and SK—RC-52.wt cells were seeded into g-Slide 8 Well high Glass Bottom at a density of 5×10^4 cells per well in 300 μL of RPMI medium supplemented with 10% fetal calf serum (FCS), AA, and Hepes (10 mM) and allowed to grow overnight under standard culture conditions. Hoechst 33342 nuclear dye was used to stain nuclear structures. The culture medium was replaced with fresh medium containing either compound 36 or 29 (150 nM). Randomly selected colonies were imaged 1 h after incubation on the confocal microscope Zeiss LSM 880 airyscan (Zeiss). Fiji was used for the data processing and visualization.

Data set [5] relates to FAP negative SKRC-52.wt. As to the kind of experiment: Flow cytometry (FACS) binding. Type of data set: cell-based. The note with it: 100 nM; 1 h on ice. How it is done: (§5) Cells were detached from culture plates using Accutase cell detachment solution, counted and suspended to a final concentration of 1.25×10≢cell/100 μL in a solution of FACS buffer (1% bovine serum albumin, 2 mM EDTA, in 500 mL PBS pH 7.4). Aliquots of 2.5×10≡cells (200 μL) were spun down and resuspended in solutions of compound 36 and compound 29 (100 μL; 100 nM) in FACS buffer and incubated on ice in the dark for 1 h. Cells were washed once with 200 μl FACS (1% v/v)/PBS (pH=7.4), spun down, resuspended in a solution of FACS buffer and analyzed via a BD LSRFortessa™ Cell Analyzer (Biosciences). FlowJo Version 8.7 (Treestar) was used for the data analysis and visualization.
(In general: In flow cytometry, cells or beads pass a laser one at a time.)

Data set [6] relates to FAP positive SKRC-52.hFAP. As to the kind of experiment: Flow cytometry (FACS) binding. The following applies: 100 nM; 1 h on ice. Type of data set: cell-based. How it is done:
as §5

The mark [7] stands for this setting: substrate Z-Gly-Pro-AMC 20 μM, FAP concentration lower than expected IC50 (66 pM in FIG. 3, 4), room temperature, read-out: IC50 vs human FAP.

We go through 5 compounds from US20250177582A1, “HIGH-AFFINITY LIGANDS OF FIBROBLAST ACTIVATION PROTEIN FOR TARGETED DELIVERY APPLICATIONS” (PHILOCHEM AG, priority 2022, published 2025).

The structures appear in SMILES notation. Entries after “also recorded” stand apart in the source; their conditions may differ. Where two headings read alike, the source gives them in different places. Some results are limits rather than exact numbers.

Chain of murine FAP (P97321 whole entry): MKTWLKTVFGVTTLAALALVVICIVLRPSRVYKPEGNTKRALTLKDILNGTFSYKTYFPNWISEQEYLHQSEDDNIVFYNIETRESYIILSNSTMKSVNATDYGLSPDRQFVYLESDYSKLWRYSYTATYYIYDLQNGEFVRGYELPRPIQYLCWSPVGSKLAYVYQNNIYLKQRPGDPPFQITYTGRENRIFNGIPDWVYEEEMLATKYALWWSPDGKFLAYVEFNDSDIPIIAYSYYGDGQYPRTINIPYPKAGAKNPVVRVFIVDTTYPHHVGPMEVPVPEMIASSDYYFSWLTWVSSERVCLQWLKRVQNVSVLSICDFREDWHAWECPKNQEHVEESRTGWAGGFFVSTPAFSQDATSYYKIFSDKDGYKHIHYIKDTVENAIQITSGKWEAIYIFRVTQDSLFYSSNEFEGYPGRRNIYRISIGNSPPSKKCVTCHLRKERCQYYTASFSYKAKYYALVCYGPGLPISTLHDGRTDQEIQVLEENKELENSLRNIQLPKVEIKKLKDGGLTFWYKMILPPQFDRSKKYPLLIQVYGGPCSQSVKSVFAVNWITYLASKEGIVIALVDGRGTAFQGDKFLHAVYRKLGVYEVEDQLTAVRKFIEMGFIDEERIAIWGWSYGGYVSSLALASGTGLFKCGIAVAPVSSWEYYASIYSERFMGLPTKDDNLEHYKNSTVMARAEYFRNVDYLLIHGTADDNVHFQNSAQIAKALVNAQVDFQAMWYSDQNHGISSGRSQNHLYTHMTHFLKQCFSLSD
Chain of human FAP (Q12884 whole entry): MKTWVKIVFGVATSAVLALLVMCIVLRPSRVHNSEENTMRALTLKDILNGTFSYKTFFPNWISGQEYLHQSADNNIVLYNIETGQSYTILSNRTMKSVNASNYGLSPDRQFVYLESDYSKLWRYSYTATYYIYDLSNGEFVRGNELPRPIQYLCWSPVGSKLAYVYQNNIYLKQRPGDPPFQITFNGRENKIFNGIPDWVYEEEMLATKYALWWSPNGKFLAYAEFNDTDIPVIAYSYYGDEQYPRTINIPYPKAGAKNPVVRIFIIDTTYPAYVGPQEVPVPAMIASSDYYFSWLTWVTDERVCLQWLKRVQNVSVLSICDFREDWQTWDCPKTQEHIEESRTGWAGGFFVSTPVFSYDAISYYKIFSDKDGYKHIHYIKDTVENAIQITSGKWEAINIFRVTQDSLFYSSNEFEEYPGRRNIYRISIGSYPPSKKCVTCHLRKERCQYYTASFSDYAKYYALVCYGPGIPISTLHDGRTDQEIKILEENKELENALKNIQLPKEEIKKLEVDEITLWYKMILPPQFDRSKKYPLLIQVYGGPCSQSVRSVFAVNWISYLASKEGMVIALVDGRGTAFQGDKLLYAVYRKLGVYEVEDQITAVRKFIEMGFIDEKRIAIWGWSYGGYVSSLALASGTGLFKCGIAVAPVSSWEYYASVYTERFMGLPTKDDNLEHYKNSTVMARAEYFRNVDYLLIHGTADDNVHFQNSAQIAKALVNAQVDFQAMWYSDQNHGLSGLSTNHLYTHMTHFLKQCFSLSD

As a reminder, the IC50 is the concentration that gives 50% inhibition. One may read the half-life as the time needed for the level to fall by half in the phase considered. Read a high half-life as slow decline. In the case of `CN(C)C(=N)NCCCC(NC(=O)CCC(=O)Nc1cccc2c(C(=O)NCC(=O)N3CC(F)(F)C[C@H]3C#N)ccnc12)C(=O)N[C@@H](Cc1ccccc1)C(=O)NCCNC(=O)CCC(C(=O)O)N1CCN(CC(=O)O)CCN(CC(=O)O)CCN(CC(=O)O)CC1` (stereo in doubt) [Compound 28], the IC50 in data set [1] is 0.00479 nM; in data set [2] (setting [7]), 0.03 nM. For the same compound, in data set [3], the half-life at 100 µM was > 48 h.

Take `N#C[C@@H]1CC(F)(F)CN1C(=O)CNC(=O)c1ccnc2c(NC(=O)CCC(=O)O)cccc12` [Compound 8, (S)-4-((4-((2-(2-cyano-4,4-difluoropyrrolidin-1-yl)-2-oxoethyl)carbamoyl)quinolin-8-yl)amino)-4-oxobutanoic acid, reference compound]: the IC50 in data set [1] is 16.1 nM; in data set [2] (22.6° C., [hFAP] 2.5 nM to 39 pM, substrate 20 μM, read-out: IC50 values from fitted curves, inhibition assay performed overtime), 6 to 21 nM; in data set [2] (setting [7]) it was 10.9 nM.

On to `C#CC[C@H](NC(=O)[C@H](CCCNC(=N)N(C)C)NC(=O)CCC(=O)Nc1cccc2c(C(=O)NCC(=O)N3CC(F)(F)C[C@H]3C#N)ccnc12)C(=O)N[C@@H](CCCCN)C(=O)O` [Compound 9], for which the IC50 in data set [1] was found to be 0.115 nM; in data set [2] (setting [7]), 0.439 nM. In data set [2] (SAR comparison), the “FAP inhibition potency (in words)” value is “sub-nanomolar range; also recorded: increased strongly”.

Take `CN(C)C(=N)NCCC[C@H](NC(=O)CCC(=O)Nc1cccc2c(C(=O)NCC(=O)N3CC(F)(F)C[C@H]3C#N)ccnc12)C(=O)N[C@@H](Cc1ccccc1)C(=O)NCCNC(=S)Nc1ccc2c(c1)C(=O)OC21c2ccc(O)cc2Oc2cc(O)ccc21` [Compound 29]: in data set [4], the “internalization, confocal microscopy” value is listed as “Internalization was not observed” and the “staining pattern, confocal microscopy” value is listed as “Membrane-specific staining”. The “binding on wild-type (FAP-negative) cells, flow cytometry” value in data set [5] was “no binding”. Moreover, the “staining of FAP-positive cells, flow cytometry” value in data set [6] is “stained”.

With `C#CC[C@H](NC(=O)[C@H](CCCNC(=N)N(C)C)NC(=O)c1coc(CNC(=O)CCC(=O)N2CC(F)(F)C[C@H]2C#N)c1)C(=O)N[C@@H](CCCCNC(=S)Nc1ccc2c(c1)C(=O)OC21c2ccc(O)cc2Oc2cc(O)ccc21)C(=O)O` [Compound 36], in data set [4], the “internalization, confocal microscopy” value is “Internalization was not observed” and the “staining pattern, confocal microscopy” value is listed as “Membrane-specific staining”. Further, the “binding on wild-type (FAP-negative) cells, flow cytometry” value in data set [5] is “no binding”. The “staining of FAP-positive cells, flow cytometry” value in data set [6] is reported as “stained”.
